In patent publication US20100010078A1, “METHODS OF TREATING ANDROGEN DEPENDENT PROSTATE CANCER BY ADMINISTERING AN ACTIVE PHARMACEUTICAL INGREDIENT BEING FISETIN, 3,3',4',7-TETRAHYDROXYFLAVONE OR A DERIVATIVE THEREOF, IN AN ORAL, TRANSDERMAL OR TOPICAL DOSAGE FORM” (priority 2008, published 2010):
Where two headings read alike, the source gives them in different places.

How the values were obtained:
CWR22Ru1 cells = assay: MTT cell viability assay, CWR22Ru1 cells; format: cell-based; conditions: Homo sapiens, read-out: decrease in cell viability; for cytotoxicity at 10 µM: CWR22Ru1, fisetin 10 μM; for cytotoxicity at 20 µM: CWR22Ru1, fisetin 20 μM; for cytotoxicity at 40 µM: CWR22Ru1, fisetin 40 μM; for cytotoxicity at 60 µM: CWR22Ru1, fisetin 60 μM
Protocol: obtained from ATCC (Manassas, Va.). LNCaP cells were cultured in Dulbecco's Modified Eagle's medium supplemented with 5% heat-inactivated fetal bovine serum and 1% penicillin/streptomycin (P-S). CWR22Ru1 and PC-3 cells were grown in RPMI 1640 (Invitrogen) supplemented with 10% fetal bovine serum and 1% P-S. Human prostate epithelial cells (PrEC) were obtained from Cambrex Bioscience (Walkersville, Md.) and grown in prostate epithelial basal cell medium (Cambrex Bioscience) according to the manufacturer's instructions. The cells were maintained under standard cell culture conditions at 37° C. and 5% CO2 in a humid environment. Fisetin dissolved in dimethyl sulfoxide (final concentration 0.1% v/v) was used for the treatment of cells. The cells (60-70% confluent) were treated with fisetin (10-60 μM) for 24 and 48 h in complete growth medium.
Cell viability. The effect of fisetin on the viability of cells was determined by 3-[4,5-dimethylthiazol-2-yl]-2,5-diphenyl tetrazoliumbromide assay. LNCaP, CWR22Ru1, PC-3 and PrEC cells were plated at 1×10^4 cells per well in 200 μl of complete culture medium containing 10-60 μM concentrations of fisetin in 96-well microtiter plates for 24 and 48 h. After incubation for specified times at 37° C. in a humidified incubator, 3-[4,5-dimethylthiazol-2-yl]-2,5-diphenyl tetrazoliumbromide (5 mg/ml in PBS) was added to each well and incubated for 2 h, after which the plate was centrifuged at 1,800×g for 5 min at 4° C. The absorbance was recorded on a microplate reader at the wavelength of 540 nm. The effect of fisetin on growth inhibition was assessed as percent cell viability where DMSO-treated cells were taken as 100% viable. DMSO at the concentrations used was without any effect on cell viability.

cdk2, cdk4 and cdk6 = assay: Western blot, cdks in LNCaP cells; format: cell-based, human; conditions: fisetin 10-60 μM, 48 h
Protocol: Protein extraction and western blotting. Following the treatment of LNCaP cells with fisetin (10-60 μM; 48 h), the media was aspirated, the cells were washed with cold PBS (pH 7.4), and ice-cold lysis buffer (50 mM Tris-HCl, 150 mM NaCl, 1 mM EGTA, 1 mM EDTA, 20 mM NaF, 100 mM Na3VO4, 0.5% NP-40, 1% Triton X-100, 1 mM PMSF (pH 7.4)) with freshly added protease inhibitor cocktail (Protease Inhibitor Cocktail Set III, Calbiochem, La Jolla, Calif.) over ice for 30 min. The cells were scraped and the lysate was collected in a microfuge tube and passed through a needle to break up the cell aggregates. […]
For western blotting, 30-50 μg protein was resolved over 8-12% polyacrylamide gels and transferred to a nitrocellulose membrane. The blot was blocked in blocking buffer (5% nonfat dry milk/1% Tween 20; in 20 mM TBS, pH 7.6) for 1 hr at room temperature, incubated with appropriate monoclonal or polyclonal primary antibody in blocking buffer for 1.5 h to overnight at 4° C., followed by incubation with anti-mouse or anti-rabbit secondary antibody horseradish peroxidase conjugate obtained from Amersham Life Science Inc. and detected by chemiluminescence and autoradiography using XAR-5 film obtained from Eastman Kodak Co. (Rochester, N.Y., USA). […]

caspase-3 and -7 = assay: Immunofluorescence staining for active caspase-3 and -7; format: cell-based, human; conditions: LNCaP, fisetin only 40 μM, 48 h
Protocol: Immunofluorescence staining for active caspase-3 and -7. LNCaP cells were incubated with 40 μM concentration of the general caspase inhibitor Z-VAD-FMK for 2 h, followed by the addition of fisetin (40 μM; 48 h) and then harvested. ICT's Magic Red™ substrate-based MR-Caspase assay kit was used for the immunofluorescence staining for caspase-3 and -7. This kit utilizes the fluorophore, cresyl violet. As the 4 amino acid sequence, aspartylglutamylalanylaspartic acid (DEVD) is the optimal sequence for caspase -3 as well as -7, it was coupled to cresyl violet to create the caspase 3/7 substrate, MR-(DEVD)2. […] Following enzymatic hydrolysis at one or both of the aspartic acid amide linkage sites, the mono and non-substituted cresyl violet fluorophores fluoresce red and fluorescence photographs were obtained at 510-560 nm excitation and 610 nm emission.

immunofluorescence staining of active caspase-3 & 7 (caspase-3 and -7): intense staining
Structure (SMILES): O=c1c(O)c(-c2ccc(O)c(O)c2)oc2cc(O)ccc12 [fisetin, 3,3′,4′,7-tetrahydroxyflavone]
cytotoxicity at 10 µM (CWR22Ru1 cells; 24 h): 12%
cytotoxicity at 10 µM (CWR22Ru1 cells; 48 h): 18%
cytotoxicity at 20 µM (CWR22Ru1 cells; 24 h): 26%
cytotoxicity at 20 µM (CWR22Ru1 cells; 48 h): 34%
cytotoxicity at 40 µM (CWR22Ru1 cells; 24 h): 38%
cytotoxicity at 40 µM (CWR22Ru1 cells; 48 h): 44%
cytotoxicity at 60 µM (CWR22Ru1 cells; 24 h): 52%
cytotoxicity at 60 µM (CWR22Ru1 cells; 48 h): 55%
protein expression of cdk2, 4 and 6 (cdk2, cdk4 and cdk6): dose-dependent decrease
